Data on 26 compounds can be found in PubChem BioAssay AID2124 (Sanford-Burnham Center for Chemical Genomics, 2009).

A short description of this test: cell-permeable autofluorescent compounds in GFP channel, dose response, artefact control, imaging, high-content imaging (AID 2124).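 On all read-outs here: cells exposed to compound for 48 hours before fixing.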 Conditions: cells, GFP-channel autofluorescence, high-content imaging, at 10 µM; for z-score: stronger effect = higher value.

Inconclusive results are not listed. The source made the active and inactive calls. How the calls were made is not given here; tested in MIN6 cells.

As to `Cc1cc(N/N=C/c2ccc([N+](=O)[O-])o2)nc2ccccc12`, the z-score was 0.28 and the cell count was determined as 733 cells.

In the case of `CCOC(=O)N1CCN(C(=O)c2cc(S(=O)(=O)N3CCCC3)cn2C)CC1`, the z-score was -0.33 (inactive) and the cell count is 3250 cells.

For the compound `CCOc1ccc2[nH]c(=O)c(CN(CCc3ccccc3)C(=O)N3CCOCC3)cc2c1`, the z-score was -0.26 (inactive) and the cell count came to 3100 cells.

Consider `CCn1nnc2sc3c(c2c1=O)CCC(C)C3` (configuration not stated), for which the z-score was -0.39 (inactive) and the cell count came to 3170 cells.

As to `CCCCN(C)C1=CC2=CC(=C(C#N)C#N)CCC2CC1` (configuration not stated), the z-score was 11.3 and the cell count came to 3120 cells.

In the case of `COc1cccc(N2CCN(c3ncccn3)CC2)c1`, the z-score was -0.33 (inactive) and the cell count turned out to be 3230 cells.

As to `CCCCCOC(=O)C1=C(C)Nc2nnnn2C1c1ccc(OC)c(OC)c1OC` (configuration not stated), the z-score was -0.39 (inactive) and the cell count was found to be 3580 cells.

For `N#C/C(=C/c1ccc(N2CCOCC2)o1)c1ccc(Br)cc1`, the z-score was 0.24 and the cell count turned out to be 555 cells.

Take `CN1CCN(C(=O)/C(=C\c2cccs2)NC(=O)c2cccs2)CC1`: the z-score is -0.33 (inactive) and the cell count stood at 3070 cells.

Turning to `Cc1ccc(C2(C(F)(F)F)N=C3Sc4cc(C)ccc4N3C(=O)N2)cc1` (configuration not stated), the z-score is -0.39 (inactive) and the cell count amounted to 2940 cells.

For the compound `CCOC(=O)CN1CC23C=CC(O2)C(C(=O)Nc2cc(OC)ccc2OC)C3C1=O` (configuration not stated), the z-score is -0.38 (inactive) and the cell count was found to be 3210 cells.

`COc1ccc(C(=O)N(CN2CCCC2=O)c2ccc(C)cc2)cc1`: the z-score was -0.33 (inactive) and the cell count is 3380 cells.

For the compound `CCOC(=O)Cn1c2ccc(F)cc2c2nc(C)sc21`, the z-score was -0.39 (inactive) and the cell count was determined as 2900 cells.

On to `CC(=O)c1ccc2cccc3c2c1N=CN3C`, for which the z-score was -0.23 (inactive) and the cell count turned out to be 3230 cells.

For the compound `Cc1cccc(OCCNc2nc3c(c(=O)n(C)c(=O)n3C)n2C)c1`, the z-score is -0.33 (inactive) and the cell count amounted to 3060 cells.

Regarding `O=[N+]([O-])c1ccc(N/N=C/c2c[nH]c3ccccc23)cc1`, the z-score is 0.33 and the cell count was found to be 1200 cells.

Regarding `COCCNC(=S)N/N=C(\C)c1ccc2cc(OC)ccc2c1`, the z-score was -0.33 (inactive) and the cell count is 2790 cells.

On to `CC(=O)Nc1sc(/C(C#N)=C/c2ccc(Cl)c(Cl)c2)nc1-c1ccc(C)cc1`, for which the z-score was 1.08 and the cell count was determined as 2880 cells.

On to `O=C(Cn1ncn2c(cc3ccccc32)c1=O)NCc1ccco1`, for which the z-score was -0.39 (inactive) and the cell count stood at 2610 cells.

Consider `O=C1C=C(Nc2ccc(O)cc2)CC(c2ccco2)C1` (configuration not stated), for which the z-score is -0.39 (inactive) and the cell count amounted to 3020 cells.

In the case of `CC(NC(=O)/C(C#N)=C1\N=C(NC(=O)c2ccco2)c2ccccc21)c1ccccc1` (configuration not stated), the z-score was -0.32 (inactive) and the cell count amounted to 2760 cells.

Regarding `C1=C(N2CCOCC2)/C(=C/c2nc3ccccc3[nH]2)CC1`, the z-score was -0.33 (inactive) and the cell count turned out to be 3040 cells.

For the compound `COc1c2c(nc3ccccc13)OC(C(C)(O)COC(C)=O)C2` (configuration not stated), the z-score is -0.33 (inactive) and the cell count was determined as 2830 cells.

In the case of `CCOC(=O)CC1C(=O)NCCN1c1nc2ccc(C)cn2c(=O)c1/C=C1\SC(=S)N(C(C)CC)C1=O` (configuration not stated), the z-score was -0.02 and the cell count was found to be 2960 cells.

`COc1ccc(C)cc1NC(=O)CC(NC(C)=O)c1ccccc1` (configuration not stated): the z-score was -0.33 (inactive) and the cell count was 3060 cells.

As to `CC(=O)Oc1ccc2c(c1)Oc1cc(OC(C)=O)ccc1C21OC(=O)c2ccccc21`, the z-score was 4.32 and the cell count amounted to 3270 cells.
